Laboratory results as given in PubChem BioAssay (NCI).
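Each compound was tested at five concentrations against cells in 96-well plates for 48 hours. GI50: concentration for 50% inhibition of growth. TGI: concentration producing complete growth inhibition.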

Legend:
Test in all cases: DTP human tumour cell line panel, 48 h
RPMI-8226 leukemia = system: RPMI-8226 leukemia
OVCAR-4 ovarian = system: OVCAR-4 ovarian
OVCAR-3 ovarian = system: OVCAR-3 ovarian
BT-549 breast = system: BT-549 breast
A549 NSCLC = system: A549 NSCLC
SK-MEL-2 melanoma = system: SK-MEL-2 melanoma
SNB-19 CNS = system: SNB-19 CNS
SK-MEL-5 melanoma = system: SK-MEL-5 melanoma
UO-31 renal = system: UO-31 renal
A498 renal = system: A498 renal

SMILES	GI50 (RPMI-8226 leukemia) [µM]	TGI (RPMI-8226 leukemia) [µM]	GI50 (OVCAR-4 ovarian) [µM]	TGI (OVCAR-4 ovarian) [µM]	GI50 (OVCAR-3 ovarian) [µM]	TGI (OVCAR-3 ovarian) [µM]	GI50 (BT-549 breast) [µM]	TGI (BT-549 breast) [µM]	GI50 (A549 NSCLC) [µM]	TGI (A549 NSCLC) [µM]	GI50 (SK-MEL-2 melanoma) [µM]	TGI (SK-MEL-2 melanoma) [µM]	GI50 (SNB-19 CNS) [µM]	TGI (SNB-19 CNS) [µM]	GI50 (SK-MEL-5 melanoma) [µM]	TGI (SK-MEL-5 melanoma) [µM]	GI50 (UO-31 renal) [µM]	TGI (UO-31 renal) [µM]	GI50 (A498 renal) [µM]	TGI (A498 renal) [µM]
CCOC(=O)/C(C#N)=C/Nc1ccc(-c2nc3ccccc3[nH]2)cc1	19.7	> 100	31.4	> 100	20.4	51.6	34.1	85.5	52.7	> 100	42.6	> 100	36.5	> 100	28.5	> 100	21.1	> 100		
C1C[OH+]CC[OH+]CC[OH+]CC[OH+]CC[OH+]CC[OH+]1.[Cl-].[Nb+5]	> 100	> 100	> 100	> 100	> 100	> 100			> 100	> 100	> 100	> 100	> 100	> 100	> 100	> 100	68.6	> 100	> 100	> 100
CC(C)(C)OC(=O)N1N=NC2C3OC(CC3=O)C21 (stereo not given)		> 100				> 100				> 100		> 100		> 100				> 100		> 100
C#Cc1cc2c(N)c(C(=O)c3cc(OC)c(OC)c(OC)c3)[nH]c2cc1OC	1.84	20	0.987	> 100					0.729	> 100	0.572	62.9	0.73	> 100	0.434	12.9	0.722	56.1	0.487	16.9
C[N+](C)(C)CC1CCCC/C1=N\O (stereo not given)		> 100		> 100		> 100				> 100		> 100		> 100				> 100		> 100
COc1cc2c(cc1OC)-c1ncc3cc4c(cc3c1C2)OCO4	5.57	> 100	57.3	> 100	61.2	> 100			34.2	> 100	32.2	75.8	60	> 100	7.65	> 100	23.1	63.7		
NS(=O)(=O)c1ccc(NC(=O)COC(=O)c2cccc3c(=O)c4ccccc4[nH]c23)cc1		> 100		> 100		47.6				> 100		69.8		45.2		> 100		> 87		51.8
COc1ccc(/C=N/N=C(\[O-])c2ccncc2)cc1F.COc1ccc(/C=N\N=C(/[O-])c2ccncc2)cc1F.[Cu+2]	40.1	> 100	18.5	34.5	27.3	82.9	20.5	37.1	27.3	> 100	23	53.2	17.8	35.7	26	80.4	64.4	> 100		
O=C(/C(=C/c1ccccc1)c1ccccc1)N1c2ccccc2CC1c1c[nH]c2ccccc12 (stereo not given)		> 100		> 100		89.6				> 100		81.9		> 100		> 100		> 100		> 100
CCOC(=O)NC(=O)c1c[nH]c(=O)[nH]c1=O		> 100		> 100		> 100				> 100		> 100		> 100		> 100		> 100		> 100
CC1=C(C(=O)Nc2ccccc2)C(c2ccc(C(C)C)cc2)C(C(=O)Nc2ccccc2)=C(C)N1		29.8		> 100		56.3				> 100		31.2		> 100		27		46.6		> 72.3
Cc1ncc([N+](=O)[O-])n1CCNC(=O)CCCCCn1ccnc1[N+](=O)[O-]						> 100		> 100		> 100		> 100		> 100		> 100		> 100		> 100
COC(=O)Cc1nc2ccccc2o1		> 100		> 100		> 100				> 100		> 100		> 100		> 100		> 100		> 100
COc1cc(-c2nn(-c3ccc(NC(=O)c4cc(Cl)cc(Cl)c4)cc3)cc2-c2ccncc2)ccc1Cl			> 100	> 100	> 100	> 100	> 100	> 100	> 100	> 100	> 100	> 100	> 100	> 100	12	> 100	6.86	> 100	> 100	> 100
CC(=O)CC(=O)/C=C/c1cccs1		> 100		> 100		> 100				> 100		> 100		> 100		> 100		> 100		> 100
O=C(c1ccccc1)C1C(C(=O)c2ccccc2)C(c2ccccc2)N(c2ccccc2)C1c1ccccc1 (stereo not given)		> 100				> 100		> 100		> 100		> 100		> 100		> 100		> 100		
COC(=O)C1CC(C(=O)OC)c2nc3cc(C)c(C)cc3nc21 (stereo not given)		> 100		> 100		> 100				> 100		> 100		> 100		> 100		> 100		> 100
Cc1nnc(-c2ccc(-c3nc4ccccc4o3)cc2)o1	> 100	> 100			> 100	> 100	65.5	> 100	26.1	> 100	> 100	> 100	20.7	43.1	21	65.3	> 100	> 100		
OCC(O)C(OC1OC(CO)C(O)C(O)C1O)c1nn(-c2ccccc2)c2nc3cc(Cl)ccc3nc12 (stereo not given)		> 100		> 100		> 100								> 100				> 100		> 100
